Test results from a melting point compilation (Tetko et al.; mined from patent text by program, amines drawn as free bases though some values may be those of a salt).

Row | melting point [°C] | SMILES
1 | 227 | COc1ccc2cc(-c3nc(-c4ccc(C)cc4)no3)c(=O)oc2c1
2 | 121 to 122 | O=C(NCCCSc1ccncc1)c1ccsc1
3 | 250 to 251 | O=C(c1ccccc1)c1cc(Cl)ccc1-n1c(CN2C(=O)c3ccccc3C2=O)nnc1CN1C(=O)c2ccccc2C1=O
4 | 98 to 99 | CCCCCCCC(=O)OCOC1=C(C(=O)Nc2ccccn2)N(C)S(=O)(=O)c2ccccc21
5 | 190 | Oc1ccc(Oc2cc3ccc(Cl)cc3cn2)cc1
6 | 158 to 161 | Cc1nsc(NC(=O)C(C)c2ccc3oc(-c4cccc(Cl)c4Cl)nc3c2)c1Cl (stereo unspecified)
7 | 177 to 179 | O=C1c2cccc3cccc(c23)C(=O)N1CCN1CCC(O)(c2ccccc2)CC1
8 | 140 | Cc1c(-c2ccccc2)n(Cc2ccccc2)c2ccc(-c3ccc(OCC#N)cc3)cc12
9 | 145 to 146 | CN(C)C(=O)c1ccc(CN(C)C(=O)C23CC4CC(CC(C4)C2)C3)s1
10 | 121 to 122 | CC(C)c1nc(CCO)n(Cc2ccncc2)c1Sc1cc(Cl)cc(Cl)c1
11 | 80 to 82 | CC(C)Sc1cc(C(C)(C)C)c(O)c(C(C)(C)C)c1
12 | 145 to 146 | COc1cc(OC)cc(-c2cc(=O)c3ccc(OCC(O)CNC(C)(C)C)cc3o2)c1 (stereo unspecified)
13 | 142 to 144 | Cn1c(CO)cnc1[N+](=O)[O-]
14 | 238 to 240 | O=c1[nH]c2ncc(-c3cn[nH]c3)nc2n1CC1CCOCC1
15 | 98 to 101 | Cc1nn(-c2ccccn2)c2nc3ccccc3c(N(C)C)c12
16 | 117 to 118 | CCn1ncc2c(Cl)c3cc(Br)ccc3nc21
17 | 208 to 209 | COc1cccc(OC)c1C(N)=O
18 | 168 to 170 | COc1cc(Nc2c(C#N)cnc3cc(-c4csc(CN5CCOCC5)c4)ccc23)c(Cl)cc1C
19 | 48 to 51 | CCOc1ccc(C23CC2CN(C=O)C3)cc1 (stereo unspecified)
20 | 217 to 218 | Cc1nc2c(OCc3c(Cl)ccc(N(C)C(=O)CO)c3Cl)cccn2c1Br
21 | 153 to 165 | COc1cncc(OC)c1CCCOc1cccnc1Cc1cccc(Br)c1
22 | 178 | COc1ccc2[nH]cc(/C(C#N)=C/c3ccn(C)n3)c2c1
23 | 130 to 131 | O=S(=O)(CCCl)CCC(F)(F)C(F)(F)C(F)(F)C(F)(F)C(F)(F)C(F)(F)C(F)(F)C(F)(F)F
24 | 164 to 167 | N=C(NO)C1(c2ccccc2Br)CC1

Row | melting point [°C] | SMILES
25 | 116 to 118 | CC(C)C[C@H](NC(=O)CCC1CCCCC1)C(=O)N[C@@H](Cc1ccccc1)C(=O)CSCc1ccco1
26 | 185 to 187 | Cn1c(NC(=O)c2ccccc2)nc2ccccc2c1=O
27 | 191 to 193 | Cc1cnc2c(C#N)cnn2c1-c1cccc(C(F)(F)F)c1
28 | 95 to 97 | CC(=NOCc1ccccc1-n1c(Cl)nn(C)c1=O)c1cccc(C(F)(F)F)c1
29 | 132 to 135 | O=C(Oc1ccccc1)C(=O)Oc1ccccc1
30 | 272 to 273 | CNC(=O)c1cc2cc(S(N)(=O)=O)sc2s1
31 | 111 to 113 | CONS(=O)(=O)c1cccc([N+](=O)[O-])c1
32 | 191 to 192 | Cc1cccc(-c2nc3ccc(Cl)nn3c2-c2ccnc(Nc3ccc(F)cc3C)c2)c1
33 | 181 to 182 | O=C(O)C1=Cc2cc(Cl)c(C(F)(F)F)cc2OC1C(F)(F)F (stereo unspecified)
34 | 99 to 101 | Fc1ccc2nc(Cl)ccc2c1
35 | 112 to 114 | CC(=O)c1ccc(OCCCCN2C(=O)c3ccccc3C2=O)cc1
36 | 211 to 212 | C=CCc1c(O)cc(Cl)c2c(-c3ccccc3F)noc12
37 | 262 to 263 | CCOP(=O)(Cc1ccc(NC(=O)c2cc3c(s2)-c2c(SC)sc(C(=O)Nc4ccc(CP(=O)(OCC)OCC)cc4)c2CC3)cc1)OCC
38 | 193 to 194 | Nc1cc(C(=O)Nc2ccncc2)ccc1OCC1CCCCC1
39 | 80 | CC(CN1CCCC1)N1c2ccccc2Sc2ccc(C(=O)NCc3cccc(Cl)c3)cc21 (racemic)
40 | 177 to 180 | CCCc1c(OC(C(=O)O)c2ccc(Cl)c(Cl)c2)ccc(C(C)=O)c1O (stereo unspecified)
41 | 173 to 174 | CC(C)(C)OC(=O)NC1CCc2cccc(-c3ccccc3)c2CC1=O (stereo unspecified)
42 | 199 to 201 | Nc1cc(Cl)c([N+](=O)[O-])cc1OC(=O)c1ccccc1
43 | 163 | Cc1cccc(NC(=O)NCC(=O)N(CC(=O)OC(C)(C)C)c2ccccc2OC(F)(F)F)c1
44 | 190 | COc1ccc(-c2ccc(C)nc2-c2ccc(O)cc2)cc1
45 | 108 | O=c1cc(N2CCOCC2)nc2n1CC[C@@H](C(F)(F)F)N2
46 | 79 to 81 | COC(=O)c1cccc(O)c1O
47 | 64 to 68 | CCCCCOc1nc(N)c2ncn(C3CCCCC3)c2n1
48 | 132 to 135 | O=C(O)CN1CCC(=C2c3ccccc3COc3ccccc32)CC1

Row | melting point [°C] | SMILES
49 | 111 to 112 | Cc1noc2cc3c(cc12)C1(CO3)C(=O)N(Cc2ccc(C(F)(F)F)o2)c2ccccc21 (stereo unspecified)
50 | 180 to 182 | COCCOC1CCN(c2ccc(NC(=O)c3cnn(-c4ccc(Cl)cc4)c3C)cc2C#N)CC1
51 | 144 to 146 | COC(=O)CCC(=O)Nc1cccc(O)c1
52 | 224 to 225 | O=C(NCc1ccccn1)c1cc(-n2cnn(Cc3ccc(F)cc3)c2=O)n[nH]1
53 | 166 to 168 | COc1ccc(N2CCN(c3c(C)c(C)c4c(c3C)C(N3CCc5ccccc53)C(C)(C)O4)CC2)cc1 (stereo unspecified)
54 | 205 to 206 | CCOC(=O)c1cc2c(nc(C)n2C)c2c1C(=O)CC1(Cc3ccccc3C1)N2
55 | 161 to 162 | Nc1cc(Cl)ccc1C(=O)NCC1CCN(C(c2ccccc2)c2ccccc2)CC1
56 | 54 to 59 | CC(=O)SCC(CC(C)C)C(=O)NCCN1CCOCC1 (stereo unspecified)
57 | 62 | CCCCCc1ccc(CC(=O)c2ccc(OC)cc2)cc1
58 | 201 to 204 | CSC1C(=O)Nc2ccc(C3=NNC(=O)SC3)cc21 (stereo unspecified)
59 | 310 to 312 | O=C1OCCC1N1C(=O)c2cccc3cccc(c23)C1=O (stereo unspecified)
60 | 162 to 164 | CCOC(=O)Nc1ccc(CN2OCC(C)(C)C2=O)c(Cl)c1
61 | 122 to 124 | COc1cc(NC(=O)CCCCCN2CCNCC2)c2nccc(C)c2c1
62 | 52 to 54 | C=CCn1c2ccccc2c2ccccc21
63 | 172 to 176 | O=c1ccc2ccc(CBr)cc2o1
64 | > 300 | CC1COc2c(F)c(Cl)cc3c(=O)c(C(=O)O)cn1c23 (stereo unspecified)
65 | 180 | CC1(C)c2ccccc2N2Cc3cc([N+](=O)[O-])ccc3OC21C (stereo unspecified)
66 | 138 to 139 | N#Cc1c[nH]cc1-c1ccccc1Cl
67 | 191 to 192 | CCCCc1ncc(/C=C(\Cc2ccc(N)cc2)C(=O)O)n1Cc1ccccc1Cl
68 | 164 to 165 | COc1cc(F)ccc1Oc1c(Cl)nc(C)nc1NS(=O)(=O)c1ccc(C(C)(C)C)cc1
69 | 95 to 99 | COc1ccc(-c2noc(C)c2-c2ccc(OC)cc2)cc1
70 | 159 to 160 | COc1ccc(-c2cc(F)c(F)cc2-c2ccc(S(C)(=O)=O)cc2)cc1F
71 | 81 to 83 | COc1cc(OCCCN2CCOCC2)c(C=CC(=O)c2ccc(C(N)=O)cc2)cc1-c1cccs1
72 | 177 to 178 | COC(=O)Nc1c(Br)cc(S(=O)(=O)N(C)C)cc1Br

Row | melting point [°C] | SMILES
73 | 193 to 195 | O=C(CCC(F)(F)F)Oc1cc(=O)n(-c2ccccc2)c2ncccc12
74 | 292 | NS(=O)(=O)c1ccc(-c2nc(-c3cnn4c(C(F)(F)F)cc(-c5ccc(C(F)(F)F)cc5)nc34)no2)cc1
75 | 190 | COc1cccc2c1C(=O)C(Br)=C(Br)C2=O
76 | 152 to 153 | O=C(C=Cc1ccc(OCc2ccccc2)c([N+](=O)[O-])c1)Nc1ccc(Cl)cc1Cl
77 | 133 to 134 | O=C1CCC(c2ccc(CCCCCNC(=O)c3cccnc3)cc2)=NN1
78 | 155 to 158 | CCC1(CC)c2cc(CO)c(CO)cc2C(CC)(CC)N1Cc1ccccc1
79 | 91 to 104 | COc1ccc(OC(F)(F)F)cc1[C@H]1CO[C@]2(CCCN[C@H]2c2ccccc2)C1
80 | 178 to 182 | CC(C)(C)OC(=O)N1CCC2(CC1)CC(c1ccc(CNS(C)(=O)=O)c(F)c1)=NO2
81 | 108 to 109 | COc1ccc(Cc2nnc(-c3ccc4occc4c3)o2)cc1
82 | 73 | COc1cccc2c1CCn1cc(-c3ccccc3)nc1C2OC1CCN(C)CC1 (stereo unspecified)
83 | 210 to 212 | NC(=O)C(N)N=Nc1ccccc1C(=O)c1ccccn1 (stereo unspecified)
84 | 111 to 113 | O=[N+]([O-])c1ccc(Oc2nn(Cc3ccccc3F)c3ncccc23)nc1
85 | 124 to 125 | COc1cc(N)c2nc(OCc3ccc(Cl)cc3)ccc2c1
86 | 71 to 75 | COc1c(CCC(=O)O)cccc1Oc1ccccc1C
87 | 180 to 183 | CCCCCCOC(=O)Nc1ccc2c(c1)NC(=O)C2(C)C
88 | 50 to 51 | CCCCCN1C(=O)C(=O)c2ccccc21
89 | 109 to 111 | COc1ccc(C2=NN(CCCCBr)C(=O)[C@H]3CC=CC[C@@H]23)cc1Cl (relative stereo)
90 | 149 to 150 | COC(=O)c1cnn2c(C(F)(F)F)cc(O)nc12
91 | 133 | COc1ccc2c(c1)C(c1ccccc1)NC(=O)N2CC1CC1 (stereo unspecified)
92 | 207 to 208 | CC(C)=NOCc1nc2c(N)nc3cccnc3c2n1CCCNC(=O)NC1CCCCC1
93 | 115 to 117 | NS(=O)(=O)c1cc(C(=O)OCC(=O)N2CCC(CO[N+](=O)[O-])CC2)c(NCc2ccco2)cc1Cl
94 | 271 to 272 | O=C(O)c1ccc(N2CC(=O)N(S(=O)(=O)c3ccc(Cl)cc3)C2=O)cc1

Row | SMILES | melting point [°C]
95 | Cc1c(N2C(=O)C[C@H](O)[C@@H]2C)ccc(C#N)c1Cl | 172 to 173
96 | C1=C(c2c[nH]c3ccccc23)CCN(CCc2csc3ccccc23)C1 | 195 to 198
97 | CCCN(CCC)Cc1nc(-c2ncn3c2CN(C)C(=O)c2c(Br)cccc2-3)no1 | 135 to 145
98 | Cc1cccc(Cc2c[nH]cn2)c1 | 127 to 130
99 | CN1CC=C(c2c[nH]c3cc(Cl)c(Cl)cc23)CC1 | 255 to 257
100 | Nc1c2c(nc3ccccc13)CCCC2N1CCC(c2ccccc2)CC1 (stereo unspecified) | 189 to 190
101 | O=C(NCCCN1CC=C(c2ccc(Cl)cc2)CC1)C(F)(F)F | 105 to 107
